Biological target: 5-hydroxytryptamine receptor 2A (Homo sapiens, UniProt P28223)
Assay: Ability to displace [3H]ketanserin from CHO cells expressing human 5-hydroxytryptamine 2A receptor was determined
Type: cell-based

Sequence of 5-hydroxytryptamine receptor 2A (P28223 whole entry): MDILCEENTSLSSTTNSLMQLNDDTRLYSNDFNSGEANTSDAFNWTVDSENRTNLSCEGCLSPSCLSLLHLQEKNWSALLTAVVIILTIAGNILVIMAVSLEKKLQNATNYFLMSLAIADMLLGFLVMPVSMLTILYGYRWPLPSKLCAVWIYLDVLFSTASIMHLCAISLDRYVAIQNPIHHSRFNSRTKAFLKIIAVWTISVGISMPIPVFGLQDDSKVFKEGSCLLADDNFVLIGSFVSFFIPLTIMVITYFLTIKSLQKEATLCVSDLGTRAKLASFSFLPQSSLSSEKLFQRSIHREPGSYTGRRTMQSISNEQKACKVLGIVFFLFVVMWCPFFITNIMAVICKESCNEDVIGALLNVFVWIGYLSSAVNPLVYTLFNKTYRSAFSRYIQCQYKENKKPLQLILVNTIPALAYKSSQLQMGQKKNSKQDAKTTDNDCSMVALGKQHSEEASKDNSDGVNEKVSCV

## c1ccc(-c2[nH]c3ccccc3c2CCN2CCCCC2)cc1
  Ki: 2.7 nM
